{"source": "ChEMBL document CHEMBL1140892", "about": "“Synthesis and evaluation of rifabutin analogs against Mycobacterium avium and H(37)Rv, MDR and NRP Mycobacterium tuberculosis” (Bioorg Med Chem, 2009)", "key": {"[1]": {"system": "Mycobacterium tuberculosis", "assay": "Antimycobacterial activity against isoniazid, rifampicin and streptomycin-resistant Mycobacterium tuberculosis after 7 days by resazurin method", "assay_type": "functional", "conditions": "168 h"}, "[2]": {"system": "Mycobacterium tuberculosis", "assay": "Antimycobacterial activity against isoniazid, rifampicin and ethambutol-resistant Mycobacterium tuberculosis after 7 days by resazurin method", "assay_type": "functional", "conditions": "168 h"}, "[3]": {"system": "Mycobacterium tuberculosis", "assay": "Antimycobacterial activity against multidrug-resistant Mycobacterium tuberculosis infected in BALB/c mouse assessed as reduction of bacterial load in lungs at 5 mg/kg/day, intragastrically after 1 month relative to control", "assay_type": "functional, organism-based"}}, "note": "Active and inactive are the calls of the source. No cut-off for these calls is given here."}
{"molecule": "CCCCCCCCCCCCCCCC(=O)N1C2=C3NC(=O)/C(C)=C\\C=C\\[C@H](C)[C@H](O)[C@@H](C)[C@@H](O)[C@@H](C)[C@H](OC(C)=O)[C@H](C)[C@@H](OC)/C=C/O[C@@]4(C)Oc5c(C)c(O)c(c(c5C4=O)C2=NC12CCN(CC(C)C)CC2)C3=O", "values": [{"measurement": "MIC", "setting": "[1]", "result": "> 10", "unit": "µg/mL"}, {"measurement": "MIC", "setting": "[2]", "result": "> 10", "unit": "µg/mL"}]}
{"molecule": "CO[C@H]1/C=C/O[C@@]2(C)Oc3c(C)c(O)c4c(c3C2=O)C2=NC3(CC[N+]([O-])(CC(C)C)CC3)NC2=C(NC(=O)/C(C)=C\\C=C\\[C@H](C)[C@H](O)[C@@H](C)[C@@H](O)[C@@H](C)[C@H](O)[C@@H]1C)C4=O", "note": "(stereo partly drawn)", "values": [{"measurement": "MIC", "setting": "[1]", "result": "> 10", "unit": "µg/mL"}, {"measurement": "MIC", "setting": "[2]", "result": "> 10", "unit": "µg/mL"}]}
{"molecule": "CO[C@H]1/C=C/O[C@@]2(C)Oc3c(C)c(O)c4c(c3C2=O)C2=NC3(CCN(CC(C)C)CC3)N(C(C)=O)C2=C(NC(=O)/C(C)=C\\C=C\\[C@H](C)[C@H](O)[C@@H](C)[C@@H](O)[C@@H](C)[C@H](OC(C)=O)[C@@H]1C)C4=O", "values": [{"measurement": "MIC", "setting": "[1]", "result": "> 10", "unit": "µg/mL"}, {"measurement": "MIC", "setting": "[2]", "result": "> 10", "unit": "µg/mL"}, {"measurement": "Activity", "setting": "[3]", "result": "Active"}]}
{"molecule": "CO[C@H]1/C=C/O[C@@]2(C)Oc3c(C)c(O)c4c(c3[C@H]2O)C2=NC3(CCN(CC(C)C)CC3)NC2=C(NC(=O)/C(C)=C\\C=C\\[C@H](C)[C@H](O)[C@@H](C)[C@@H](O)[C@@H](C)[C@H](O)[C@@H]1C)C4=O", "values": [{"measurement": "MIC", "setting": "[1]", "result": "> 10", "unit": "µg/mL"}, {"measurement": "MIC", "setting": "[2]", "result": "> 10", "unit": "µg/mL"}]}
{"molecule": "CO[C@H]1/C=C/O[C@@]2(C)Oc3c(C)c(O)c4c(c3C2=O)C2=NC3(CC[N+]([O-])(CC(C)C)CC3)NC2=C(NC(=O)/C(C)=C\\C=C\\[C@H](C)[C@H](O)[C@@H](C)[C@@H](O)[C@@H](C)[C@H](OC(C)=O)[C@@H]1C)C4=O", "note": "(stereo partly drawn)", "values": [{"measurement": "MIC", "setting": "[1]", "result": "> 10", "unit": "µg/mL"}, {"measurement": "MIC", "setting": "[2]", "result": "> 10", "unit": "µg/mL"}]}
{"molecule": "CO[C@H]1/C=C/O[C@@]2(C)Oc3c(C)c(O)c4c(c3C2=O)C2=NC3(CCN(CC(C)C)CC3)NC2=C(NC(=O)/C(C)=C\\C=C\\[C@H](C)[C@H](O)[C@@H](C)[C@@H](O)[C@@H](C)[C@H](O)[C@@H]1C)C4=O", "values": [{"measurement": "MIC", "setting": "[1]", "result": "> 10", "unit": "µg/mL"}, {"measurement": "MIC", "setting": "[2]", "result": "> 10", "unit": "µg/mL"}]}
{"molecule": "CO[C@H]1/C=C/O[C@@]2(C)Oc3c(C)c(O)c4c(c3[C@H]2O)C2=NC3(CC[N+]([O-])(CC(C)C)CC3)NC2=C(NC(=O)/C(C)=C\\C=C\\[C@H](C)[C@H](O)[C@@H](C)[C@@H](O)[C@@H](C)[C@H](OC(C)=O)[C@@H]1C)C4=O", "note": "(stereo partly drawn)", "values": [{"measurement": "MIC", "setting": "[1]", "result": "> 10", "unit": "µg/mL"}, {"measurement": "MIC", "setting": "[2]", "result": "> 10", "unit": "µg/mL"}]}
{"molecule": "CO[C@H]1/C=C/O[C@@]2(C)Oc3c(C)c(O)c4c(c3C2=O)C2=NC3(CCN(CC(C)C)CC3)NC2=C(NC(=O)/C(C)=C\\C=C\\[C@H](C)[C@H](O)[C@@H](C)[C@@H](O)[C@@H](C)[C@H](OC(C)=O)[C@@H]1C)C4=O", "note": "[RIFABUTIN]", "values": [{"measurement": "MIC", "setting": "[1]", "result": "> 10", "unit": "µg/mL"}, {"measurement": "MIC", "setting": "[2]", "result": "> 10", "unit": "µg/mL"}, {"measurement": "Activity", "setting": "[3]", "result": "Active"}]}
{"molecule": "C=CCCCCCCCCC(=O)N1C2=C3NC(=O)/C(C)=C\\C=C\\[C@H](C)[C@H](O)[C@@H](C)[C@@H](O)[C@@H](C)[C@H](OC(C)=O)[C@H](C)[C@@H](OC)/C=C/O[C@@]4(C)Oc5c(C)c(O)c(c(c5C4=O)C2=NC12CCN(CC(C)C)CC2)C3=O", "values": [{"measurement": "MIC", "setting": "[1]", "result": 6, "unit": "µg/mL"}, {"measurement": "MIC", "setting": "[2]", "result": 6, "unit": "µg/mL"}, {"measurement": "Activity", "setting": "[3]", "result": "Active"}]}
{"molecule": "CO[C@H]1/C=C/O[C@@]2(C)Oc3c(C)c(O)c4c(c3[C@H]2O)C2=NC3(CCN(CC(C)C)CC3)N(C(C)=O)C2=C(NC(=O)/C(C)=C\\C=C\\[C@H](C)[C@H](O)[C@@H](C)[C@@H](O)[C@@H](C)[C@H](OC(C)=O)[C@@H]1C)C4=O", "values": [{"measurement": "MIC", "setting": "[1]", "result": 8, "unit": "µg/mL"}, {"measurement": "MIC", "setting": "[2]", "result": 8, "unit": "µg/mL"}]}
